Measured values taken from US12655116B2, “Substituted isophthalic acid diamides” (Bayer Aktiengesellschaft, priority 2020, dated 2026).

How the values were obtained:
[1] = test system: ABUTH; test: Pre-emergence herbicidal action against ABUTH; type: in vivo, Abutilon theophrasti
Summary of the method: (§1)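 Herbicidal effect was assessed 3 weeks after treatment by visual comparison with untreated controls, 100% denoting dead plants. Aqueous WP or EC preparations had been applied at 600 to 800 l/ha with 0.2% wetting agent to the soil covering freshly sown seeds.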

[2] = test system: ALOMY; test: Pre-emergence herbicidal action against ALOMY; type: in vivo, Alopecurus myosuroides; conditions: 80 g/ha, pre-emergence, scored visually after 3 weeks vs untreated controls (100% = plants have died, 0% = like control plants)
Summary of the method: as §1

[3] = test system: AMARE; test: Pre-emergence herbicidal action against AMARE; type: in vivo, Amaranthus retroflexus
Summary of the method: as §1

[4] = test system: AVEFA; test: Pre-emergence herbicidal action against AVEFA; type: in vivo, Avena fatua; conditions: 80 g/ha, pre-emergence
Summary of the method: as §1

[5] = test system: ECHCG; test: Pre-emergence herbicidal action against ECHCG; type: in vivo, Echinochloa crus-galli; conditions: 80 g/ha
Summary of the method: as §1

[6] = test system: HORMU; test: Pre-emergence herbicidal action against HORMU; type: in vivo, Hordeum murinum; conditions: 80 g/ha, pre-emergence
Summary of the method: as §1

[7] = test system: LOLRI; test: Pre-emergence herbicidal action against LOLRI; type: in vivo, Lolium rigidum; conditions: 80 g/ha
Summary of the method: as §1

[8] = test system: MATIN; test: Pre-emergence herbicidal action against MATIN; type: in vivo, Matricaria inodora
Summary of the method: as §1

[9] = test system: PHBPU; test: Pre-emergence herbicidal action against PHBPU; type: in vivo, Pharbitis purpurea; conditions: dosage 80 g/ha
Summary of the method: as §1

[10] = test system: POLCO; test: Pre-emergence herbicidal action against POLCO; type: in vivo, Polygonum convolvulus; conditions: dosage 80 g/ha
Summary of the method: as §1

[11] = test system: SETVI; test: Pre-emergence herbicidal action against SETVI; type: in vivo, Setaria viridis; conditions: dosage 80 g/ha
Summary of the method: as §1

[12] = test system: STEME; test: Pre-emergence herbicidal action against STEME; type: in vivo, Stellaria media
Summary of the method: as §1

[13] = test system: VERPE; test: Pre-emergence herbicidal action against VERPE; type: in vivo, Veronica persica; conditions: dosage 80 g/ha
Summary of the method: as §1

[14] = test system: VIOTR; test: Pre-emergence herbicidal action against VIOTR; type: in vivo, Viola tricolor
Summary of the method: as §1

[15] = test system: DIGSA; test: Pre-emergence herbicidal action against DIGSA; type: in vivo, Digitaria sanguinalis
Summary of the method: as §1

[16] = test system: ABUTH; test: Post-emergence herbicidal action against ABUTH; type: in vivo, Abutilon theophrasti; conditions: visual assessment about 3 weeks after treatment vs untreated controls
Summary of the method: (§2)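 Herbicidal effect was scored visually in percent after about 3 weeks in the greenhouse. Plants had been raised in sandy loam and treated post-emergence at the one-leaf stage with formulated compound at 600 to 800 l/ha water plus 0.2% wetting agent.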

[17] = test system: ALOMY; test: Post-emergence herbicidal action against ALOMY; type: in vivo, Alopecurus myosuroides; conditions: dosage 20 g/ha, visual assessment about 3 weeks after treatment vs untreated controls
Summary of the method: as §2

[18] = test system: AMARE; test: Post-emergence herbicidal action against AMARE; type: in vivo, Amaranthus retroflexus; conditions: 20 g/ha, visual assessment about 3 weeks after treatment, 100% = plants have died, 0% = like control plants
Summary of the method: as §2

[19] = test system: AVEFA; test: Post-emergence herbicidal action against AVEFA; type: in vivo, Avena fatua; conditions: 20 g/ha, visual assessment about 3 weeks after treatment, 100% = plants have died, 0% = like control plants
Summary of the method: as §2

[20] = test system: ECHCG; test: Post-emergence herbicidal action against ECHCG; type: in vivo, Echinochloa crus-galli
Summary of the method: as §2

[21] = test system: HORMU; test: Post-emergence herbicidal action against HORMU; type: in vivo, Hordeum murinum; conditions: dosage 20 g/ha
Summary of the method: as §2

[22] = test system: MATIN; test: Post-emergence herbicidal action against MATIN; type: in vivo, Matricaria inodora; conditions: dosage 20 g/ha
Summary of the method: as §2

[23] = test system: PHBPU; test: Post-emergence herbicidal action against PHBPU; type: in vivo, Pharbitis purpurea
Summary of the method: as §2

[24] = test system: SETVI; test: Post-emergence herbicidal action against SETVI; type: in vivo, Setaria viridis
Summary of the method: as §2

[25] = test system: STEME; test: Post-emergence herbicidal action against STEME; type: in vivo, Stellaria media
Summary of the method: as §2

[26] = test system: VERPE; test: Post-emergence herbicidal action against VERPE; type: in vivo, Veronica persica; conditions: 20 g/ha
Summary of the method: as §2

[27] = test system: VIOTR; test: Post-emergence herbicidal action against VIOTR; type: in vivo, Viola tricolor
Summary of the method: as §2

[28] = test system: DIGSA; test: Post-emergence herbicidal action against DIGSA; type: in vivo, Digitaria sanguinalis; conditions: for Post-emergence action against DIGSA: 20 g/ha
Summary of the method: as §2

[29] = test system: POLCO; test: Post-emergence herbicidal action against POLCO; type: in vivo, Polygonum convolvulus; conditions: dosage 20 g/ha
Description: Seeds of monocotyledonous and dicotyledonous weed and crop plants are laid out in sandy loam soil in wood-fiber pots, covered with soil and cultivated in a greenhouse under good growth conditions. 2 to 3 weeks after sowing, the test plants are treated at the one-leaf stage. The compounds of the invention, formulated in the form of wettable powders (WP) or as emulsion concentrates (EC), are then sprayed onto the green parts of the plants in the form of an aqueous suspension or emulsion at a water application rate equivalent to 600 to 800 l/ha, with addition of 0.2% wetting agent. After the test plants have been left to stand in the greenhouse under optimal growth conditions for about 3 weeks, the action of the preparations is assessed visually in comparison to untreated controls (herbicidal action in percent (%): 100% activity=the plants have died, 0% activity=like control plants). […] The tables below illustrate, in an illustrative manner, the post-emergence herbicidal action of the compounds of the invention, the herbicidal activity being stated in percent.

[30] = 80 g/ha, scored visually after 3 weeks vs untreated controls (100% = plants have died, 0% = like control plants)

CCNC(=O)c1c(C(F)F)ccc(C(=O)Nc2nnnn2CC)c1SC [Example 2-88]
90%: Pre-emergence action against ALOMY (herbicidal activity) [2] | Pre-emergence action against AVEFA in % [4] | Pre-emergence action against PHBPU in % [9] | Pre-emergence action against POLCO in % [10] | Post-emergence action against ABUTH in % ([16]; dosage 5 g/ha) | Post-emergence action against ABUTH in % ([16]; dosage 20 g/ha) | Post-emergence action at 20 g/ha against AMARE in % [18] | Post-emergence action against PHBPU in % ([23]; dosage 20 g/ha) | Post-emergence action against SETVI in % ([24]; dosage 5 g/ha) | Post-emergence action against STEME in % ([25]; dosage 5 g/ha) | Post-emergence action against VIOTR in % ([27]; 20 g/ha) | Post-emergence action against DIGSA in % ([28]; 5 g/ha) | Post-emergence action against DIGSA [28]
80%: Pre-emergence action against HORMU in % [6] | Pre-emergence action against LOLRI in % [7] | Post-emergence action against ALOMY in % [17] | Post-emergence action at 20 g/ha against AVEFA in % [19] | Post-emergence action against ECHCG in % ([20]; dosage 5 g/ha) | Post-emergence action against ECHCG in % ([20]; dosage 20 g/ha) | Post-emergence action against HORMU in % [21] | Post-emergence action against MATIN in % [22] | Post-emergence action against PHBPU in % ([23]; dosage 5 g/ha) | Post-emergence action against VERPE in % [26] | Post-emergence action against VIOTR in % ([27]; 5 g/ha)
100%: Pre-emergence action against ABUTH (herbicidal activity) [1, 30] | Pre-emergence action against ABUTH (herbicidal activity in percent) ([1]; dosage 20 g/ha, scored visually after 3 weeks vs untreated controls, 100% = plants have died, 0% = like control plants) | Pre-emergence action against AMARE in % ([3]; 20 g/ha, scored visually after 3 weeks vs untreated controls, 100% = plants have died, 0% = like control plants) | Pre-emergence action against AMARE in % [3, 30] | Pre-emergence action against ECHCG in % [5] | Pre-emergence action against MATIN in % ([8]; dosage 20 g/ha) | Pre-emergence action against MATIN in % ([8]; dosage 80 g/ha) | Pre-emergence action against SETVI in % [11] | Pre-emergence action against STEME in % ([12]; dosage 20 g/ha) | Pre-emergence action against STEME in % ([12]; dosage 80 g/ha) | Pre-emergence action against VERPE in % [13] | Pre-emergence action against VIOTR in % ([14]; dosage 20 g/ha) | Pre-emergence action against VIOTR in % ([14]; dosage 80 g/ha) | Pre-emergence action against DIGSA in % ([15]; dosage 20 g/ha) | Pre-emergence action against DIGSA in % ([15]; dosage 80 g/ha) | Post-emergence action against SETVI in % ([24]; dosage 20 g/ha) | Post-emergence action against STEME in % ([25]; 20 g/ha)

CCNC(=O)c1c(Br)ccc(C(=O)Nc2nnc(C)o2)c1Cl [Example 6-141]
80%: Pre-emergence action against AVEFA in % [4] | Pre-emergence action against MATIN in % ([8]; dosage 80 g/ha) | Post-emergence action against ABUTH in % ([16]; dosage 20 g/ha) | Post-emergence action against ECHCG in % ([20]; dosage 20 g/ha) | Post-emergence action against POLCO in % [29] | Post-emergence action against VIOTR in % ([27]; 20 g/ha) | Post-emergence action against DIGSA [28]
90%: Pre-emergence action against ALOMY (herbicidal activity) [2] | Pre-emergence action against ECHCG in % [5] | Pre-emergence action against DIGSA in % ([15]; dosage 20 g/ha) | Post-emergence action against ALOMY in % [17]
100%: Pre-emergence action against AMARE in % [3, 30] | Pre-emergence action against DIGSA in % ([15]; dosage 80 g/ha) | Post-emergence action at 20 g/ha against AMARE in % [18]
